Literature values in patent US20030035836A1, “Oral controlled release pharmaceutical composition for once-a-day therapy for the treatment and prophylaxis of cardiac and circulatory diseases” (priority 2001, published 2003).

Settings: oral administration; considerable first pass metabolism

COc1ccccc1OCCNCC(O)COc1cccc2[nH]c3ccccc3c12 (racemic) [Carvedilol, 1-(9H-carbazol-4-yloxy)-3-[[2-(2-methoxyphenoxy)ethyl]amino]-2-propanol]
absolute bioavailability: 25%
